Test results reported in patent US20240018161A1, “MODULATORS OF CYSTIC FIBROSIS TRANSMEMBRANE CONDUCTANCE REGULATOR” (VERTEX PHARMACEUTICALS INCORPORATED, priority 2020, published 2024).
Like-named read-outs stand apart in the source and are kept apart here.

Molecular target: CFTR-mediated chloride transport in human intestinal epithelial enteroid cells (Homo sapiens, UniProt P13569)
Assay: Membrane potential dye, Enteroid Assay A
Format: cell-based
Settings: for EC50: read-out: Ent. A EC50
How it was run: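 Membrane potential dye (20 μM methyl oxonol, with 30 μM CaCCinh-A01 and 30 μM Chicago Sky Blue) loaded 25 min at room temperature into ROCK-inhibitor-seeded human enteroid cells. Chloride-free stimulation buffer triggered transport, followed by 15 min fluorescence. % Activity relative to 3 μM/3 μM/300 nM triple-combination control.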

[1] = enteroid cells incubated with test compound 18-24 hours, acute 10 μM forskolin and 300 nM N-[2,4-bis(1,1-dimethylethyl)-5-hydroxyphenyl]-1,4-dihydro-4-oxoquinoline-3-carboxamide
[2] = percentage of chloride transport of triple combination control (3 μM N-[(6-amino-2-pyridyl)sulfonyl]-6-(3-fluoro-5-isobutoxy-phenyl)-2-[(4S)-2,2,4-trimethylpyrrolidin-1-yl]pyridine-3-carboxamide based)

Sequence of CFTR-mediated chloride transport in human intestinal epithelial enteroid cells (P13569 with tags, fused parts or gaps DEL508-508): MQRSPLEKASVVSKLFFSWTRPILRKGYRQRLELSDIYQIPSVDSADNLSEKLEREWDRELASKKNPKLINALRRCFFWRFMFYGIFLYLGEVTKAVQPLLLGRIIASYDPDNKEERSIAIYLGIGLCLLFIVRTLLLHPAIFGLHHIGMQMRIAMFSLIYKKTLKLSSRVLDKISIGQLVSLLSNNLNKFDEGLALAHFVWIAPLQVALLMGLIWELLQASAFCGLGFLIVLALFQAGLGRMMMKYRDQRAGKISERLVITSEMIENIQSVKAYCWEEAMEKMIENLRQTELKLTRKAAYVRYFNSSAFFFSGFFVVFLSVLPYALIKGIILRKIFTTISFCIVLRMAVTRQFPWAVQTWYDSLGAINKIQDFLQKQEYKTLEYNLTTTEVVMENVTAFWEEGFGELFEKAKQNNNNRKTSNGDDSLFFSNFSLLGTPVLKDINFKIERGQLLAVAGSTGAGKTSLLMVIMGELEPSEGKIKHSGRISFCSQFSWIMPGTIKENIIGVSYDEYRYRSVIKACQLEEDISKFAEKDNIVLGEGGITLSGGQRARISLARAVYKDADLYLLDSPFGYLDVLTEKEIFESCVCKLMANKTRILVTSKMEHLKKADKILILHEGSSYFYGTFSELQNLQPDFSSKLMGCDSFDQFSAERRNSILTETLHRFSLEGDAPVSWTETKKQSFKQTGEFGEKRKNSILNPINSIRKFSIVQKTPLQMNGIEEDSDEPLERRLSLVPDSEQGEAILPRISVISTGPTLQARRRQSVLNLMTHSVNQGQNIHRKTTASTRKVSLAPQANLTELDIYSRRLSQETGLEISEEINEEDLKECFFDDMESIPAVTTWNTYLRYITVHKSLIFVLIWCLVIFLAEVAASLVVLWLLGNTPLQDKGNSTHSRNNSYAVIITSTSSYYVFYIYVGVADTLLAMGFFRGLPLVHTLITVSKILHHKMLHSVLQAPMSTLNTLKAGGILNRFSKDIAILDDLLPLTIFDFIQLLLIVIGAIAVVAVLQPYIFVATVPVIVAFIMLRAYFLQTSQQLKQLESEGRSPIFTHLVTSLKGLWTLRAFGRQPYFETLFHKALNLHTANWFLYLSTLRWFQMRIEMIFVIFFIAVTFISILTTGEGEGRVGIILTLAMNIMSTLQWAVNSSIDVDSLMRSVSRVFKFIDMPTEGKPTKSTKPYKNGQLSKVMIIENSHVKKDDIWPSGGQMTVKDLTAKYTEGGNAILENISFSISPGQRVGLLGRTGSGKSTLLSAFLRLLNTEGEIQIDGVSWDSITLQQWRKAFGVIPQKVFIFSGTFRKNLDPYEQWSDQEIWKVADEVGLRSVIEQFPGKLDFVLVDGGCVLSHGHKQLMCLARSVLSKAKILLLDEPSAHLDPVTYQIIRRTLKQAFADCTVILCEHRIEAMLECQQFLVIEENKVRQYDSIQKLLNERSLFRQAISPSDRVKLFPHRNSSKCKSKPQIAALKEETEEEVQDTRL

Row | Ent. A Max Activity (%) (Enteroid Assay A) | EC50 (Enteroid Assay A) [nM] | SMILES | Ent. A Max Activity (%) [2] | further results
1 | +++ (+++ is >600%) | < 1000 | Cc1cccc(C)c1-c1cc2nc(n1)NS(=O)(=O)c1cccc(c1)C(=O)N1C[C@@H](CNC[C@@H]1C(C)C)O2 [Compound 133, (16R,20S)-12-(2,6-Dimethylphenyl)-20-(propan-2-yl)-15-oxa-8λ^6-thia-1,9,11,18,22-pentaazatetracyclo[14.4.1.13,7.110,14]tricosa-3(23),4,6,10(22),11,13-hexaene-2,8,8-trione] |  | 
2 | + (+ is <30%) |  | Cc1cccc(C)c1-c1cc2nc(n1)NS(=O)(=O)c1cccc(c1)C(=O)N1Cc3cc(C(C)(C)C)ccc3C(C1)O2 (centres unmarked) [Compound 182, 20-tert-Butyl-12-(2,6-dimethylphenyl)-15-oxa-8λ^6-thia-1,9,11,25-tetraazapentacyclo[14.7.1.13,7.110,14.017,22]hexacosa-3,5,7(26),10,12,14(25),17,19,21-nonaene-2,8,8-trione] |  | 
3 | +++ (+++ is >600%) | < 1000 | Cc1cccc(C)c1-c1cc2nc(n1)NS(=O)(=O)c1cccc(c1)C(=O)N1CCN(CCC(C)(C)C)C[C@H](O2)[C@H]1CC(C)C [Compound 157] |  | 
4 | +++ (+++ is >600%) | < 1000 | Cc1cccc(C)c1-c1cc2nc(n1)NS(=O)(=O)c1cccc(c1)C(=O)N1C[C@@H](CN(C)C[C@H]1CC(C)C)O2 [Compound 103, (16R,20R)-12-(2,6-Dimethylphenyl)-18-methyl-20-(2-methylpropyl)-15-oxa-8λ^6-thia-1,9,11,18,22-pentaazatetracyclo[14.4.1.13,7.110,14]tricosa-3(23),4,6,10(22),11,13-hexaene-2,8,8-trione] |  | 
5 | ++ (++ is 30-60%) | 3000 to 30000 | Cc1cccc(C)c1-c1cc2nc(n1)NS(=O)(=O)c1cccc(c1)C(=O)N1CCC(CCCO2)C1 (centres unmarked) [Compound 355] |  | 
6 | ++ (++ is 30-60%) | < 1000 | Cc1cccc(C)c1-c1cc2nc(n1)NS(=O)(=O)c1cccc(c1)C(=O)N1C[C@@H](CNC[C@@H]1CC(C)C)O2 [Compound 95, (16R,20S)-12-(2,6-Dimethylphenyl)-20-(2-methylpropyl)-15-oxa-8λ^6-thia-1,9,11,18,22-pentaazatetracyclo[14.4.1.13,7.110,14]tricosa-3(23),4,6,10(22),11,13-hexaene-2,8,8-trione] |  | 
7 | ++ (++ is 30-60%) | 3000 to 30000 | Cc1cccc(C)c1-c1cc2nc(n1)NS(=O)(=O)c1cccc(c1)C(=O)N1CC(O2)C2CCCN(C)C2C1 (single isomer, unassigned) [Compound 201, 12-(2,6-Dimethylphenyl)-21-methyl-15-oxa-8λ^6-thia-1,9,11,21,25-pentaazapentacyclo[14.7.1.13,7.110,14.017,22]hexacosa-3,5,7(26),10(25),11,13-hexaene-2,8,8-trione] |  | 
8 | ++ (++ is 30-60%) | < 1000 | Cc1cccc(C)c1-c1cc2nc(n1)NS(=O)(=O)c1cccc(c1)C(=O)N1CCN(Cc3ccccc3)CC(O2)C1CC(C)C (single isomer, unassigned) [Compound 88, 18-Benzyl-12-(2,6-dimethylphenyl)-21-(2-methylpropyl)-15-oxa-8λ^6-thia-1,9,11,18,22-pentaazatetracyclo[14.4.1.13,7.110,14]tricosa-3(23),4,6,10(22),11,13-hexaene-2,8,8-trione] |  | 
9 | ++ (++ is 30-60%) | < 1000 | Cc1cccc(C)c1-c1cc2nc(n1)NS(=O)(=O)c1cccc(c1)C(=O)N1CCN(C3CC(C)(C)C3)C[C@H](C1)O2 [Compound 24] |  | 
10 | ++ (++ is 30-60%) | < 1000 | Cc1cccc(C)c1-c1cc2nc(n1)NS(=O)(=O)c1cccc(c1)CN1C[C@@H](CN(CCC(C)(C)C)CC1=O)O2 [Compound 145] |  | 

Second part, the compound before the results:

Row | SMILES | Ent. A Max Activity (%) (Enteroid Assay A) | EC50 (Enteroid Assay A) [nM] | Ent. A Max Activity (%) [2] | further results
11 | Cc1cccc(C)c1-c1cc2nc(n1)NS(=O)(=O)c1cccc(c1)C(=O)N1CCN(CC3(C)CCOCC3)C[C@H](C1)O2 [Compound 14] | +++ (+++ is >600%) | < 1000 |  | 
12 | Cc1cccc(C)c1-c1cc2nc(n1)NS(=O)(=O)c1cccc(c1)C(=O)N1CCN(CC3CCOCC3)CC(C1)O2 (centres unmarked) [Compound 55] |  |  | +++ (+++ is >60%) | EC50 [1]: 3000 to 30000 nM
13 | Cc1cccc(C)c1-c1cc2nc(n1)NS(=O)(=O)c1cccc(c1)C(=O)N1CCN(C3CC4(CCC4)C3)C[C@H](C1)O2 [Compound 26] | +++ (+++ is >600%) | < 1000 |  | 
14 | Cc1cccc(C)c1-c1cc2nc(n1)NS(=O)(=O)c1cccc(c1)C(=O)N1CCN(CC3CCOCC3)CC1CO2 (centres unmarked) [Compound 312] |  |  | ++ (++ is 30-60%) | EC50 [1]: 1000 to 3000 nM
15 | Cc1cccc(C)c1-c1cc2nc(n1)NS(=O)(=O)c1cccc(c1)C(=O)N1CCN(CCC(C)C)C[C@@H]1CO2 [Compound 268] |  |  | +++ (+++ is >60%) | EC50 [1]: 1000 to 3000 nM
16 | Cc1cccc(C)c1-c1cc2nc(n1)NS(=O)(=O)c1cccc(c1)C(=O)N1CCN(C3CCC4(CCCCC4)CC3)C[C@H](C1)O2 [Compound 12] | +++ (+++ is >600%) | < 1000 |  | 
17 | Cc1cccc(C)c1-c1cc2nc(n1)NS(=O)(=O)c1cccc(c1)C(=O)N1CCN(C(=O)NCc3ccccc3)C[C@@H]1CO2 [Compound 289] |  |  | + (+ is <300%) | 
18 | Cc1cccc(C)c1-c1cc2nc(n1)NS(=O)(=O)c1cccc(c1)C(=O)N1CCN(C(=O)NC(C)C(C)C)C[C@@H]1CO2 (some centres unmarked) [Compound 292] |  |  | ++ (++ is 30-60%) | 
19 | Cc1cccc(C)c1-c1cc2nc(n1)NS(=O)(=O)c1cccc(c1)C(=O)N1CCN(Cc3ccccc3)C[C@H](O2)[C@@H]1CC(C)C (single isomer, unassigned) [Compound 87] | ++ (++ is 30-60%) | < 1000 |  | 
20 | Cc1cccc(C)c1-c1cc2nc(n1)NS(=O)(=O)c1cccc(c1)C(=O)N1CCN(C3CCC(C)(C)CC3)C[C@H](C1)O2 [Compound 5, (16R)-18-(4,4-Dimethylcyclohexyl)-12-(2,6-dimethylphenyl)-15-oxa-8λ^6-thia-1,9,11,18,22-pentaazatetracyclo[14.4.1.13,7.110,14]tricosa-3(23),4,6,10,12,14(22)-hexaene-2,8,8-trione] |  |  |  | Ent. A Max Activity (%): +++ (key: +++ is >600%; ++ is 30-60%; + is <30%); EC50: < 1000 nM
21 | Cc1cccc(C)c1-c1cc2nc(n1)NS(=O)(=O)c1cnn(c1)CC(=O)N1Cc3ccccc3C(C1)O2 (centres unmarked) [Compound 347] |  |  | + (+ is <300%) | 
22 | CC(C)Oc1cccc(-c2cc3nc(n2)NS(=O)(=O)c2cccc(c2)C(=O)N2Cc4ccccc4C(C2)O3)c1 (centres unmarked) [Compound 338] |  |  | + (+ is <300%) | 
23 | Cc1cccc(C)c1-c1cc2nc(n1)NS(=O)(=O)c1cccc(c1)C(=O)N1CCN(CC3CC(C(=O)O)C3)C[C@H](C1)O2 (some centres unmarked) [Compound 29] | +++ (+++ is >600%) | 3000 to 30000 |  | 
24 | Cc1cccc(C)c1-c1cc2nc(n1)NS(=O)(=O)c1cccc(c1)C(=O)N1CCN(Cc3ccccc3O)C[C@@H]1CO2 [Compound 271] |  |  | +++ (+++ is >60%) | EC50 [1]: < 1000 nM
25 | Cc1cccc(C)c1-c1cc2nc(n1)NS(=O)(=O)c1cccc(c1)C(=O)N1CCC3(CC3)C(C1)O2 (centres unmarked) [Compound 370] |  |  | +++ (+++ is >60%) | EC50 [1]: < 1000 nM
26 | Cc1cccc(C)c1-c1cc2nc(n1)NS(=O)(=O)c1cccc(c1)C(=O)N1CCN(C(=O)CN(C)C)CC1CO2 (centres unmarked) [Compound 305] |  |  | + (+ is <300%) | 
27 | Cc1cccc(C)c1-c1cc2nc(n1)NS(=O)(=O)c1cccc(c1)C(=O)N1CCN(CCC3(C(F)(F)F)CC3)C[C@@H]1CO2 [Compound 163, (8R)-13-(2,6-Dimethylphenyl)-6-{2-[1-(trifluoromethyl)cyclopropyl]ethyl}-10-oxa-17λ^6-thia-3,6,14,16,23-pentaazatetracyclo[16.3.1.111,15.03,8]tricosa-1(22),11(23),12,14,18,20-hexaene-2,17,17-trione] |  |  | +++ (+++ is >60%) | EC50 [1]: < 1000 nM
28 | Cc1cccc(C)c1-c1cc2nc(n1)NS(=O)(=O)c1cccc(c1)C(=O)N1C[C@@H](CN(CC(F)(F)F)C[C@@H]1CC(C)C)O2 [Compound 98, (16R,20S)-12-(2,6-Dimethylphenyl)-20-(2-methylpropyl)-18-(2,2,2-trifluoroethyl)-15-oxa-8λ^6-thia-1,9,11,18,22-pentaazatetracyclo[14.4.1.13,7.110,14]tricosa-3(23),4,6,10(22),11,13-hexaene-2,8,8-trione] | + (+ is <30%) |  |  | 
29 | Cc1cccc(C)c1-c1cc2nc(n1)NS(=O)(=O)c1cccc(c1)C(=O)N1CCN(CCCC(C)(C)C)CC(C1)O2 (centres unmarked) [Compound 65, 18-(4,4-Dimethylpentyl)-12-(2,6-dimethylphenyl)-15-oxa-8λ^6-thia-1,9,11,18,22-pentaazatetracyclo[14.4.1.13,7.110,14]tricosa-3(23),4,6,10(22),11,13-hexaene-2,8,8-trione] |  |  | ++ (++ is 30-60%) | EC50 [1]: < 1000 nM
30 | Cc1cccc(C)c1-c1cc2nc(n1)NS(=O)(=O)c1cccc(c1)C(=O)N1CCCN(CCCC3(C(F)(F)F)CC3)CC(C1)O2 (centres unmarked) [Compound 357] | ++ (++ is 30-60%) | < 1000 |  | 
